The test system of this assay is L1210 leukemia ip in BDF1 mice, survival T/C. The experiment in a line: NCI In Vivo Anticancer Drug Screen. Data for tumor model L1210 Leukemia (intraperitoneal) in B6D2F1 (BDF1) mice. To be noted: higher = longer survival. In short, it runs like this: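 Tumor cells were implanted, animals were treated, and survival was followed. The result divides the treated measurement by the vehicle-control measurement.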

Where [1] appears, read: endpoint: mean survival time, dose: 25.0 mg/kg/injection, schedule: Q01DX009 (ip), vehicle: saline with Tween-80.
Where [2] appears, read: endpoint: mean survival time, dose: 100.0 mg/kg/injection, schedule: Q04DX003 (ip), vehicle: saline with Tween-80.
[3] abbreviates: endpoint: mean survival time, dose: 100.0 mg/kg/injection, schedule: Q04DX003 (ip), vehicle: saline.
Setting [4] is: endpoint: mean survival time, dose: 200.0 mg/kg/injection, schedule: Q04DX003 (ip), vehicle: saline with Tween-80.

Structures are written as SMILES. “And” between values parts separate entries of the source, which are not always exact repeats. Equal values may be shown once. Inconclusive results and toxic doses are left out.

Regarding `O=NN(CCCl)C(=O)NC1CCC(=O)NC1=O` (configuration not stated), the T/C reads like this: (endpoint: mean survival time, dose: 0.5 mg/kg/injection, schedule: Q01DX001 (ip), vehicle: other) 104 % of control; (endpoint: mean survival time, dose: 1.0 mg/kg/injection, schedule: Q01DX001 (ip), vehicle: other) 106 % of control; (endpoint: mean survival time, dose: 2.0 mg/kg/injection, schedule: Q01DX001 (ip), vehicle: other) 118 % of control; (endpoint: mean survival time, dose: 5.5 mg/kg/injection, schedule: Q01DX001 (ip), vehicle: other) 172 % of control; (endpoint: mean survival time, dose: 6.0 mg/kg/injection, schedule: Q01DX001 (ip), vehicle: other) 203 % of control; (endpoint: mean survival time, dose: 8.0 mg/kg/injection, schedule: Q01DX001 (ip), vehicle: other) 246 % of control. The T/C (endpoint: mean survival time, dose: 11.0 mg/kg/injection, schedule: Q01DX001 (ip), vehicle: other) was 300 % of control; the T/C (endpoint: mean survival time, dose: 12.0 mg/kg/injection, schedule: Q01DX001 (ip), vehicle: other) was 292 % of control; the T/C (endpoint: mean survival time, dose: 16.0 mg/kg/injection, schedule: Q01DX001 (ip), vehicle: other) is 315 % of control and 326 % of control; the T/C (endpoint: mean survival time, dose: 22.0 mg/kg/injection, schedule: Q01DX001 (ip), vehicle: other) was 340 % of control; the T/C (endpoint: mean survival time, dose: 24.0 mg/kg/injection, schedule: Q01DX001 (ip), vehicle: other) was 220 % of control; the T/C (endpoint: mean survival time, dose: 33.0 mg/kg/injection, schedule: Q01DX001 (ip), vehicle: other) is 340 % of control. The T/C (endpoint: mean survival time, dose: 36.0 mg/kg/injection, schedule: Q01DX001 (ip), vehicle: other) is 93 % of control; the T/C (endpoint: mean survival time, dose: 44.0 mg/kg/injection, schedule: Q01DX001 (ip), vehicle: other) was 295 % of control; the T/C (endpoint: median survival time, dose: 0.63 mg/kg/injection, schedule: Q01DX001 (ip), vehicle: other) was 106 % of control; the T/C (endpoint: median survival time, dose: 0.63 mg/kg/injection, schedule: Q01DX001 (ip), vehicle: saline) is 110 % of control; the T/C (endpoint: median survival time, dose: 0.63 mg/kg/injection, schedule: Q01DX001 (iv), vehicle: other) was 103 % of control; the T/C (endpoint: median survival time, dose: 0.63 mg/kg/injection, schedule: Q01DX001 (iv), vehicle: saline) is 108 % of control. The T/C is 116 % of control (endpoint: median survival time, dose: 1.25 mg/kg/injection, schedule: Q01DX001 (ip), vehicle: other); 120 % of control (endpoint: median survival time, dose: 1.25 mg/kg/injection, schedule: Q01DX001 (ip), vehicle: saline); 118 % of control (endpoint: median survival time, dose: 1.25 mg/kg/injection, schedule: Q01DX001 (iv), vehicle: other); 106 % of control (endpoint: median survival time, dose: 1.25 mg/kg/injection, schedule: Q01DX001 (iv), vehicle: saline); 122 % of control (endpoint: median survival time, dose: 2.5 mg/kg/injection, schedule: Q01DX001 (iv), vehicle: other); 118 % of control (endpoint: median survival time, dose: 2.5 mg/kg/injection, schedule: Q01DX001 (iv), vehicle: saline). Further, the T/C reads like this: (endpoint: median survival time, dose: 5.0 mg/kg/injection, schedule: Q01DX001 (ip), vehicle: other) 227 % of control; (endpoint: median survival time, dose: 5.0 mg/kg/injection, schedule: Q01DX001 (ip), vehicle: saline) 193 % of control; (endpoint: median survival time, dose: 5.0 mg/kg/injection, schedule: Q01DX001 (iv), vehicle: other) 151 % of control; (endpoint: median survival time, dose: 5.0 mg/kg/injection, schedule: Q01DX001 (iv), vehicle: saline) 150 % of control; (endpoint: median survival time, dose: 10.0 mg/kg/injection, schedule: Q01DX001 (ip), vehicle: other) 600 % of control; (endpoint: median survival time, dose: 10.0 mg/kg/injection, schedule: Q01DX001 (ip), vehicle: saline) 598 % of control. Moreover, the T/C runs as follows: (endpoint: median survival time, dose: 10.0 mg/kg/injection, schedule: Q01DX001 (iv), vehicle: other) 290 % of control; (endpoint: median survival time, dose: 10.0 mg/kg/injection, schedule: Q01DX001 (iv), vehicle: saline) 253 % of control; (endpoint: median survival time, dose: 20.0 mg/kg/injection, schedule: Q01DX001 (ip), vehicle: other) 550 % of control; (endpoint: median survival time, dose: 20.0 mg/kg/injection, schedule: Q01DX001 (ip), vehicle: saline) 596 % of control; (endpoint: median survival time, dose: 20.0 mg/kg/injection, schedule: Q01DX001 (iv), vehicle: other) 599 % of control; (endpoint: median survival time, dose: 20.0 mg/kg/injection, schedule: Q01DX001 (iv), vehicle: saline) 600 % of control. Moreover, the T/C by setting is: (endpoint: median survival time, dose: 40.0 mg/kg/injection, schedule: Q01DX001 (ip), vehicle: other) 101 % of control; (endpoint: median survival time, dose: 40.0 mg/kg/injection, schedule: Q01DX001 (ip), vehicle: saline) 104 % of control.

As to `Cc1ccc(CN=C=S)cc1`, the T/C runs as follows: (endpoint: mean survival time, dose: 6.25 mg/kg/injection, schedule: Q01DX009 (ip), vehicle: saline with Tween-80) 103 % of control; (endpoint: mean survival time, dose: 12.5 mg/kg/injection, schedule: Q01DX009 (ip), vehicle: saline with Tween-80) 98 % of control; under setting [1], 97 % of control.

Turning to `COc1cc(N=O)ccc1O`, the T/C (endpoint: mean survival time, dose: 50.0 mg/kg/injection, schedule: Q01DX009 (ip), vehicle: Klucel (hydroxypropylcellulose) (HPC)) was 106 % of control; the T/C (endpoint: mean survival time, dose: 100.0 mg/kg/injection, schedule: Q01DX009 (ip), vehicle: Klucel (hydroxypropylcellulose) (HPC)) is 103 % of control; the T/C (endpoint: mean survival time, dose: 200.0 mg/kg/injection, schedule: Q01DX009 (ip), vehicle: Klucel (hydroxypropylcellulose) (HPC)) is 100 % of control.

In the case of `O=C(O)CCCC[Se][Se]CCCCC(=O)O`, the T/C runs as follows: (endpoint: mean survival time, dose: 25.0 mg/kg/injection, schedule: Q01DX001 (ip), vehicle: Klucel (hydroxypropylcellulose) (HPC)) 102 % of control; (endpoint: mean survival time, dose: 50.0 mg/kg/injection, schedule: Q01DX001 (ip), vehicle: Klucel (hydroxypropylcellulose) (HPC)) 96 % of control; (endpoint: mean survival time, dose: 100.0 mg/kg/injection, schedule: Q01DX001 (ip), vehicle: Klucel (hydroxypropylcellulose) (HPC)) 99 % of control.

Take `O=Nc1ccc(SCC(=O)NNC(=O)CSc2ccc(N=O)cc2[N+](=O)[O-])cc1`: the T/C under setting [2] is 93 % of control.

For `Cc1nc2c(ncn2C2OC(CO)C(O)C2O)c(=O)[nH]1` (configuration not stated), the T/C was 103 % of control (endpoint: mean survival time, dose: 100.0 mg/kg/injection, schedule: Q01DX005 (ip), vehicle: saline) and 93 % of control (endpoint: mean survival time, dose: 200.0 mg/kg/injection, schedule: Q01DX005 (ip), vehicle: saline).

For the compound `CN(C)CCC(O)c1ccc(Cl)cc1` (configuration not stated), the T/C is 102 % of control under setting [3] and 98 % of control (endpoint: mean survival time, dose: 200.0 mg/kg/injection, schedule: Q04DX003 (ip), vehicle: saline).

As for `CCC(O)C1CCCCN1` (configuration not stated), the T/C is 91 % of control under setting [2] and 104 % of control under setting [4].

With `O=C(C1C(c2ccccc2)N1Cc1ccccc1)C1C(c2ccccc2)N1Cc1ccccc1` (configuration not stated), the T/C (endpoint: mean survival time, dose: 75.0 mg/kg/injection, schedule: Q01DX001 (ip), vehicle: Klucel (hydroxypropylcellulose) (HPC)) is 101 % of control; the T/C (endpoint: mean survival time, dose: 150.0 mg/kg/injection, schedule: Q01DX001 (ip), vehicle: Klucel (hydroxypropylcellulose) (HPC)) is 88 % of control; the T/C (endpoint: mean survival time, dose: 300.0 mg/kg/injection, schedule: Q01DX001 (ip), vehicle: Klucel (hydroxypropylcellulose) (HPC)) is 93 % of control.

Take `CC(C)CCOC(=O)C1(C)OC1c1ccccc1` (configuration not stated): the T/C reads like this: (endpoint: mean survival time, dose: 100.0 mg/kg/injection, schedule: Q04DX002 (ip), vehicle: saline) 101 % of control; (endpoint: mean survival time, dose: 200.0 mg/kg/injection, schedule: Q04DX002 (ip), vehicle: saline) 97 % of control; (endpoint: mean survival time, dose: 400.0 mg/kg/injection, schedule: Q04DX002 (ip), vehicle: saline) 93 % of control.

As to `CCC(C#N)=C1CCCCC1`, the T/C is 91 % of control under setting [1]; 99 % of control (endpoint: mean survival time, dose: 50.0 mg/kg/injection, schedule: Q01DX009 (ip), vehicle: saline with Tween-80); 97 % of control (endpoint: mean survival time, dose: 100.0 mg/kg/injection, schedule: Q01DX009 (ip), vehicle: saline with Tween-80); 100 % of control under setting [3].

As to `COc1cc2c3cc1Oc1c(OC)c(OC)cc4c1C(Cc1ccc(OC(C)=O)c(c1)Oc1ccc(cc1)CC3N(C)CC2)N(C)CC4` (configuration not stated), the T/C under setting [2] was 108 % of control; the T/C under setting [4] was 101 % of control; the T/C (endpoint: mean survival time, dose: 400.0 mg/kg/injection, schedule: Q04DX003 (ip), vehicle: saline with Tween-80) is 103 % of control.

On to `CC1CC(C)(C)NC(C2CCC=CO2)N1` (configuration not stated), for which the T/C (endpoint: mean survival time, dose: 44.0 mg/kg/injection, schedule: Q01DX Z (ip), vehicle: saline) was 115 % of control and the T/C (endpoint: mean survival time, dose: 100.0 mg/kg/injection, schedule: Q01DX Z (ip), vehicle: saline) was 107 % of control.

Regarding `Nc1nc(N)c2nn(-c3ccc(C(=O)O)cc3)nc2n1`, the T/C by setting is: (endpoint: mean survival time, dose: 75.0 mg/kg/injection, schedule: Q01DX001 (ip), vehicle: saline) 87 % of control; (endpoint: mean survival time, dose: 150.0 mg/kg/injection, schedule: Q01DX001 (ip), vehicle: saline) 86 % of control; (endpoint: mean survival time, dose: 300.0 mg/kg/injection, schedule: Q01DX001 (ip), vehicle: saline) 103 % of control.

The values are drawn from PubChem BioAssay AID248 (DTP/NCI, 2004).
